Measured values reported in patent publication US20260325533A1, “CDK INHIBITOR COMPOUNDS” (ALEKSIA THERAPEUTICS, INC., priority 2023, published 2026).
Where two headings read alike, the source gives them in different places.

How the values were obtained:
Assay type in all cases: biochemical
[1] = target: CDK1/CCNB1 (Homo sapiens, UniProt P06493); experiment: CDK1 homogeneous time-resolved fluorescence (HTRF) kinase assay; conditions: CDK1/CCNB
Procedure, shortened: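 Read-out: TR-FRET (Eu anti-phospho-4E-BP1 Thr37/46 antibody, 2 nM; 665 nm or 665/615 ratio) after 60 min phosphorylation of 50 nM ULight-peptide by 0.5 nM CDK1/CCNB1 at 1 mM ATP, 23 °C. Compound preincubated 20 min with enzyme; 1% DMSO.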

[2] = target: CDK6/CCND1 (Homo sapiens, UniProt Q00534); experiment: CDK6 homogeneous time-resolved fluorescence (HTRF) kinase assay; conditions: CDK6/CCND, 1 mM ATP
Procedure, shortened: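 1 nM enzyme, 1 mM ATP, 50 nM ULight-4E-BP1 (Thr37/46) peptide, 1% DMSO; 20 min compound preincubation, 60 min reaction, 23 °C. EDTA stop, 2 nM Eu-anti-phospho-4E-BP1 antibody 60 min. TR-FRET 665 nm (or 665/615 ratio); IC50 from 11-point half-log titration, top 10 μM.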

[3] = target: CDK2/CCNE1 (Homo sapiens, UniProt P24941); experiment: CDK2 homogeneous time-resolved fluorescence (HTRF) kinase assay; conditions: CDK2/CCNE
Procedure, shortened: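 CDK2/CCNE1 (3 nM) preincubated 20 min at 23 °C with compound, then reacted 60 min at 23 °C with 1 mM ATP and 50 nM ULight-4E-BP1 (Thr37/46) peptide. Stopped with EDTA, phospho-peptide detected by Eu-anti-phospho antibody (665 nm or 665/615 ratio). IC50 from 11-point half-log titrations typically starting at 10 μM.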

[4] = target: CDK4/CCND3 (Homo sapiens, UniProt P11802); experiment: CDK4 homogeneous time-resolved fluorescence (HTRF) kinase assay; conditions: CDK4/CCND
Procedure, shortened: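 Inhibition of CDK4/CCND3 (1.5 nM) was measured at high ATP (1 mM) using 50 nM ULight-labelled 4E-BP1 Thr37/46 peptide; detection used 2 nM europium anti-phospho antibody after EDTA quench. IC50 values came from 11-point half-log titrations typically starting at 10 μM.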

[5] = >250 nM, read-out: CDK1/CCNB IC50 >250 nM
[6] = >250 nM, read-out: CDK6/CCND IC50, >250 nM
[7] = >250 nM, read-out: CDK4/CCND IC50, >250 nM
[8] = <25 nM, read-out: CDK2/CCNE IC50, <25 nM
[9] = 25-250 nM, read-out: CDK2/CCNE IC50, 25-250 nM
[10] = 25-250 nM, read-out: CDK6/CCND IC50, 25-250 nM
[11] = 25-250 nM, read-out: CDK4/CCND IC50, 25-250 nM

CDK6/CCND1, sequence (Q00534 whole entry): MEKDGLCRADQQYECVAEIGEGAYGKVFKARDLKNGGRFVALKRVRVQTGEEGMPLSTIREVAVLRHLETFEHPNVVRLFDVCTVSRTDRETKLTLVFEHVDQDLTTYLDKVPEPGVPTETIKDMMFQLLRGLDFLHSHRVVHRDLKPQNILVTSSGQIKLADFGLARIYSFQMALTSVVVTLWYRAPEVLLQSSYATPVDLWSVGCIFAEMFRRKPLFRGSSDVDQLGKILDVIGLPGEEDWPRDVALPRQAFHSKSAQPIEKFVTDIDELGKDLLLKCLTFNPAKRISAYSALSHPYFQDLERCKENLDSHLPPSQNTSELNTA
CDK6/CCND1, sequence (P24385 whole entry partner): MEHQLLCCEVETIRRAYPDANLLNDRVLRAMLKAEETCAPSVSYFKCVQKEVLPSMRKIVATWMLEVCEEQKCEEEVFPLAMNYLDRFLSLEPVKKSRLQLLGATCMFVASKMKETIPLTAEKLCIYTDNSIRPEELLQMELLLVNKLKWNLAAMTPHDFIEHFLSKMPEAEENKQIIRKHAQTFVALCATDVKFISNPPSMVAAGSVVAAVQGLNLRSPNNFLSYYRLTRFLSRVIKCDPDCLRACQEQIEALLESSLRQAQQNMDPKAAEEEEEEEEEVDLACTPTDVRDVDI
CDK4/CCND3, sequence (P11802 whole entry): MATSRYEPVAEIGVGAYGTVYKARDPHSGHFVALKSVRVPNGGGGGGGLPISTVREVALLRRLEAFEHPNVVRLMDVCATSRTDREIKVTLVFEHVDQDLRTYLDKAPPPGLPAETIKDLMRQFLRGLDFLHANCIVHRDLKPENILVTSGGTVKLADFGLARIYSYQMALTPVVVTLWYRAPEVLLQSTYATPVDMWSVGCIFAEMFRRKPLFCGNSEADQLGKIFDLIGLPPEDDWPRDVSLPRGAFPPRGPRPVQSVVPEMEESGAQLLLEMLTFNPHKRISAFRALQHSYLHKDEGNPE
CDK4/CCND3, sequence (P30281 whole entry partner): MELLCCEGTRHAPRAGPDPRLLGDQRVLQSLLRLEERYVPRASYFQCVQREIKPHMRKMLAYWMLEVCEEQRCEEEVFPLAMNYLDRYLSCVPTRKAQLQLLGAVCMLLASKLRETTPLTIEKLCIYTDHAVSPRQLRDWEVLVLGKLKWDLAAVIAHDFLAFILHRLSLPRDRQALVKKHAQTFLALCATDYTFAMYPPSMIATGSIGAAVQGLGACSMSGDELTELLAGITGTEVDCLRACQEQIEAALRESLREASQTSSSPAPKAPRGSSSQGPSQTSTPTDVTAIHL
CDK1/CCNB1, sequence (P06493 whole entry): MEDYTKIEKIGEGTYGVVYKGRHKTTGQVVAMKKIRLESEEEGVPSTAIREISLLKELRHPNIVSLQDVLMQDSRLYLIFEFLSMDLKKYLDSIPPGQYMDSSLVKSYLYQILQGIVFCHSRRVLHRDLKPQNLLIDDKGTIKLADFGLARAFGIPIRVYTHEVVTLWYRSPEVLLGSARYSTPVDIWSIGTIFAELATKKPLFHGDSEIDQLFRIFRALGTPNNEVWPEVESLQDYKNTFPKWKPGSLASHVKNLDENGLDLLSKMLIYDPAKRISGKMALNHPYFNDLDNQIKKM
CDK1/CCNB1, sequence (P14635 whole entry partner): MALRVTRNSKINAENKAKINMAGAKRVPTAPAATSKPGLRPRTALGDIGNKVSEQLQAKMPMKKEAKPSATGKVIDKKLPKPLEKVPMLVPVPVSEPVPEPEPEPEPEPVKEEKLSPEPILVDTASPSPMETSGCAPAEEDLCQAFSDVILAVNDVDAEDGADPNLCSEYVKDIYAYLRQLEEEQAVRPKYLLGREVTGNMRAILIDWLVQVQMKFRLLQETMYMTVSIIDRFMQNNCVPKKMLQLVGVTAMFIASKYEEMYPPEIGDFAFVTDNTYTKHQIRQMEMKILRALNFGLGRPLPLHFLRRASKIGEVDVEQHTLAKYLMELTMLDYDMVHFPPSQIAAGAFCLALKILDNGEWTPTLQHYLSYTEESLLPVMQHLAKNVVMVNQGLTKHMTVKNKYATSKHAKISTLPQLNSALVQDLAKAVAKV

## Cc1c(-c2nccc3cnc(Nc4ccc(S(=O)(=O)Nc5cc(C(F)(F)F)ccn5)cc4)cc23)ccc2c1cnn2CC(O)(C(F)(F)F)C(F)(F)F [Ex 740, 4-((5-(4-methyl-1-(3,3,3-trifluoro-2-hydroxy-2-(trifluoromethyl)propyl)-1H-indazol-5-yl)-2,6-naphthyridin-3-yl)amino)-N-(4-(trifluoromethyl)pyridin-2-yl)benzenesulfonamide]
[1]; [5]
  IC50: > 0.25 µM
[2]; [6]
  IC50: > 0.25 µM
[3]; >250 nM, read-out: CDK2/CCNE IC50, >250 nM
  IC50: > 0.25 µM
[4]; [7]
  IC50: > 0.25 µM

## Cc1c(-c2nccc3cnc(Nc4ccc(S(=O)(=O)Nc5cc(N6CCOCC6)ccn5)cc4)cc23)ccc2c1cnn2CC(O)(C(F)(F)F)C(F)(F)F [Ex 741, 4-((5-(4-methyl-1-(3,3,3-trifluoro-2-hydroxy-2-(trifluoromethyl)propyl)-1H-indazol-5-yl)-2,6-naphthyridin-3-yl)amino)-N-(4-morpholinopyridin-2-yl)benzenesulfonamide]
[1]; [5]
  IC50: > 0.25 µM
[2]; [6]
  IC50: > 0.25 µM
[3]; [8]
  IC50: < 0.025 µM
[4]; [7]
  IC50: > 0.25 µM

## COc1cc(NS(=O)(=O)c2ccc(Nc3cc4c(-c5ccc6c(cnn6CC(O)(C(F)(F)F)C(F)(F)F)c5C)nccc4cn3)cc2)nc(OC)c1 [Ex 742, N-(4,6-dimethoxypyridin-2-yl)-4-((5-(4-methyl-1-(3,3,3-trifluoro-2-hydroxy-2-(trifluoromethyl)propyl)-1H-indazol-5-yl)-2,6-naphthyridin-3-yl)amino)benzenesulfonamide]
[1]; [5]
  IC50: > 0.25 µM
[2]; [6]
  IC50: > 0.25 µM
[3]; [9]
  IC50: 0.025 to 0.25 µM
[4]; [7]
  IC50: > 0.25 µM

## COc1cnc(NS(=O)(=O)c2ccc(Nc3cc4c(-c5ccc6c(cnn6CC(O)(C(F)(F)F)C(F)(F)F)c5C)nccc4cn3)cc2)nc1 [Ex 743, N-(5-methoxypyrimidin-2-yl)-4-((5-(4-methyl-1-(3,3,3-trifluoro-2-hydroxy-2-(trifluoromethyl)propyl)-1H-indazol-5-yl)-2,6-naphthyridin-3-yl)amino)benzenesulfonamide]
[1]; [5]
  IC50: > 0.25 µM
[2]; [6]
  IC50: > 0.25 µM
[3]; [8]
  IC50: < 0.025 µM
[4]; [7]
  IC50: > 0.25 µM

## Cc1c(-c2nccc3cnc(Nc4ccc(S(=O)(=O)Nc5nccc(C(F)(F)F)n5)cc4)cc23)ccc2c1cnn2CC(O)(C(F)(F)F)C(F)(F)F [Ex 744, 4-((5-(4-methyl-1-(3,3,3-trifluoro-2-hydroxy-2-(trifluoromethyl)propyl)-1H-indazol-5-yl)-2,6-naphthyridin-3-yl)amino)-N-(4-(trifluoromethyl)pyrimidin-2-yl)benzenesulfonamide]
[1]; [5]
  IC50: > 0.25 µM
[2]; [6]
  IC50: > 0.25 µM
[3]; [9]
  IC50: 0.025 to 0.25 µM
[4]; [7]
  IC50: > 0.25 µM

## COc1cc(OC)nc(NS(=O)(=O)c2ccc(Nc3cc4c(-c5ccc6c(cnn6CC(O)(C(F)(F)F)C(F)(F)F)c5C)nccc4cn3)cc2)n1 [Ex 745, N-(4,6-dimethoxypyrimidin-2-yl)-4-((5-(4-methyl-1-(3,3,3-trifluoro-2-hydroxy-2-(trifluoromethyl)propyl)-1H-indazol-5-yl)-2,6-naphthyridin-3-yl)amino)benzenesulfonamide]
[1]; [5]
  IC50: > 0.25 µM
[2]; [6]
  IC50: > 0.25 µM
[3]; [9]
  IC50: 0.025 to 0.25 µM
[4]; [7]
  IC50: > 0.25 µM

## Cc1c(-c2nccc3cnc(Nc4ccc(S(=O)(=O)N[C@@H](C)CCO)cc4)cc23)ccc2c1cnn2CC(C)(C)O [Ex 746, (S)-4-((5-(1-(2-hydroxy-2-methylpropyl)-4-methyl-1H-indazol-5-yl)-2,6-naphthyridin-3-yl)amino)-N-(4-hydroxybutan-2-yl)benzenesulfonamide]
[1]; [5]
  IC50: > 0.25 µM
[2]; [10]
  IC50: 0.025 to 0.25 µM
[3]; [8]
  IC50: < 0.025 µM
[4]; [11]
  IC50: 0.025 to 0.25 µM

## Cc1c(-c2nccc3cnc(Nc4ccc(S(=O)(=O)N[C@H](C)CCO)cc4)cc23)ccc2c1cnn2CC(C)(C)O [Ex 747, (R)-4-((5-(1-(2-hydroxy-2-methylpropyl)-4-methyl-1H-indazol-5-yl)-2,6-naphthyridin-3-yl)amino)-N-(4-hydroxybutan-2-yl)benzenesulfonamide]
[1]; [5]
  IC50: > 0.25 µM
[2]; [10]
  IC50: 0.025 to 0.25 µM
[3]; [8]
  IC50: < 0.025 µM
[4]; [11]
  IC50: 0.025 to 0.25 µM

## Cc1c(-c2nccc3cnc(Nc4ccc(NS(=O)(=O)c5nccs5)cc4)cc23)ccc2c1cnn2CC(C)(C)O [Ex 748, N-(4-((5-(1-(2-hydroxy-2-methylpropyl)-4-methyl-1H-indazol-5-yl)-2,6-naphthyridin-3-yl)amino)phenyl)thiazole-2-sulfonamide]
[1]; [5]
  IC50: > 0.25 µM
[2]; [6]
  IC50: > 0.25 µM
[3]; [8]
  IC50: < 0.025 µM
[4]; [7]
  IC50: > 0.25 µM

## Cc1c(-c2nccc3cnc(Nc4ccc(S(C)(=O)=O)c(Br)c4)cc23)ccc2c1cnn2CC(C)(C)O [Ex 749, 1-(5-(7-((3-bromo-4-(methylsulfonyl)phenyl)amino)-2,6-naphthyridin-1-yl)-4-methyl-1H-indazol-1-yl)-2-methylpropan-2-ol]
[1]; [5]
  IC50: > 0.25 µM
[2]; [6]
  IC50: > 0.25 µM
[3]; [9]
  IC50: 0.025 to 0.25 µM
[4]; [7]
  IC50: > 0.25 µM

## Cc1c(-c2nccc3cnc(Nc4ccc(S(C)(=O)=O)cc4Br)cc23)ccc2c1cnn2CC(C)(C)O [Ex 750, 1-(5-(7-((2-bromo-4-(methylsulfonyl)phenyl)amino)-2,6-naphthyridin-1-yl)-4-methyl-1H-indazol-1-yl)-2-methylpropan-2-ol]
[1]; [5]
  IC50: > 0.25 µM
[2]; [6]
  IC50: > 0.25 µM
[3]; [9]
  IC50: 0.025 to 0.25 µM
[4]; [7]
  IC50: > 0.25 µM

## Cc1c(-c2nccc3cnc(Nc4ccc(NS(=O)(=O)c5cccc(N6CCN(C)CC6)c5)cc4)cc23)ccc2c1cnn2CC(C)(C)O [Ex 751, N-(4-((5-(1-(2-hydroxy-2-methylpropyl)-4-methyl-1H-indazol-5-yl)-2,6-naphthyridin-3-yl)amino)phenyl)-3-(4-methylpiperazin-1-yl)benzenesulfonamide]
[1]; [5]
  IC50: > 0.25 µM
[2]; [6]
  IC50: > 0.25 µM
[3]; [8]
  IC50: < 0.025 µM
[4]; [7]
  IC50: > 0.25 µM

## Cc1c(-c2nccc3cnc(Nc4ccc(NS(=O)(=O)c5cccc(N6CCOCC6)c5)cc4)cc23)ccc2c1cnn2CC(C)(C)O [Ex 753, N-(4-((5-(1-(2-hydroxy-2-methylpropyl)-4-methyl-1H-indazol-5-yl)-2,6-naphthyridin-3-yl)amino)phenyl)-3-morpholinobenzenesulfonamide]
[1]; [5]
  IC50: > 0.25 µM
[2]; [6]
  IC50: > 0.25 µM
[3]; [8]
  IC50: < 0.025 µM
[4]; [7]
  IC50: > 0.25 µM

## Cc1c(-c2nccc3cnc(Nc4ccc(NS(=O)(=O)c5cccnn5)cc4)cc23)ccc2c1cnn2CC(C)(C)O [Ex 754, N-(4-((5-(1-(2-hydroxy-2-methylpropyl)-4-methyl-1H-indazol-5-yl)-2,6-naphthyridin-3-yl)amino)phenyl)pyridazine-3-sulfonamide]
[1]; 25-250 nM, read-out: CDK1/CCNB IC50, 25-250 nM
  IC50: 0.025 to 0.25 µM
[2]; [10]
  IC50: 0.025 to 0.25 µM
[3]; [8]
  IC50: < 0.025 µM
[4]; [11]
  IC50: 0.025 to 0.25 µM

## Cc1c(-c2nccc3cnc(Nc4ccc(S(=O)(=O)Nc5nccc(N6CCN(CCO)CC6)n5)cc4)cc23)ccc2c1cnn2CC(O)(C(F)(F)F)C(F)(F)F [Ex 755, N-(4-(4-(2-hydroxyethyl)piperazin-1-yl)pyrimidin-2-yl)-4-((5-(4-methyl-1-(3,3,3-trifluoro-2-hydroxy-2-(trifluoromethyl)propyl)-1H-indazol-5-yl)-2,6-naphthyridin-3-yl)amino)benzenesulfonamide]
[1]; [5]
  IC50: > 0.25 µM
[2]; [6]
  IC50: > 0.25 µM
[3]; [8]
  IC50: < 0.025 µM
[4]; [7]
  IC50: > 0.25 µM

## Cc1c(-c2nccc3cnc(Nc4ccc(S(=O)(=O)Nc5nccc(N6CCN(C)CC6)n5)cc4)cc23)ccc2c1cnn2CC(O)(C(F)(F)F)C(F)(F)F [Ex 756, 4-((5-(4-methyl-1-(3,3,3-trifluoro-2-hydroxy-2-(trifluoromethyl)propyl)-1H-indazol-5-yl)-2,6-naphthyridin-3-yl)amino)-N-(4-(4-methylpiperazin-1-yl)pyrimidin-2-yl)benzenesulfonamide]
[1]; [5]
  IC50: > 0.25 µM
[2]; [6]
  IC50: > 0.25 µM
[3]; [8]
  IC50: < 0.025 µM
[4]; [7]
  IC50: > 0.25 µM

## Cc1c(-c2ncc(F)c3cnc(Nc4ccc(S(C)(=O)=O)cc4)cc23)ccc2c1cnn2CC(O)(C(F)(F)F)C(F)(F)F [Ex 757, 1,1,1,3,3,3-hexafluoro-2-((5-(4-fluoro-7-((4-(methylsulfonyl)phenyl)amino)-2,6-naphthyridin-1-yl)-4-methyl-1H-indazol-1-yl)methyl)propan-2-ol]
[1]; [5]
  IC50: > 0.25 µM
[2]; [6]
  IC50: > 0.25 µM
[3]; [9]
  IC50: 0.025 to 0.25 µM
[4]; [7]
  IC50: > 0.25 µM
